Assay results: patent US8895569B2, “Carbocyclic nucleosides and their pharmaceutical use and compositions” (Cellceutix Corporation, priority 2012, dated 2014)

What was measured:
[1] = system: Psoriasis susceptibility related RNA Gene Induced by Stress (PRINS); experiment: PRINS expression in human psoriatic tissue transplants on SCID mice; type: in vivo, SCID mice bearing human psoriatic tissue; settings: for PRINS: control 49
Procedure: (§1) In order to examine efficacy of the (−) cis-[4-[2-amino-6-(cyclopropylamino)-9H-purin-9-yl]-2-cyclopentene-1-hydroxymethyl acetate in mice, male and female SCID mice (24 to 28 gms) 6 to 8 weeks old were purchased from Charles River Laboratory (Wilmington, Mass.). The animals were kept in standard rodent cages with isolator tops at 18-26° C., and a relative humidity of 30-70% on a 12 hour light/12 hour dark cycle. Mice were given rodent chow and water ad libitum. […] Suitable animals were selected for the assigned study.
(§2) Mice were subjected to total body irradiation to mildly suppress immune system at 120 rads per animal in a Gamma Cell Radiator. Mice were identified by ear punching.
(§3) 24 Hours after the TBI, a 5 mm×5 mm cut of the human psoriatic tissue was transplanted on the skin of the mice, under ketamine/xylazine anesthesia. The tissues were adherent by using a skin cement. All animals survived the anesthesia and the surgery for the experiment. The complete fusion of the tissues was achieved by day 27. During treatments, mice were observed daily for any adverse affects. Mice body weights were taken prior to treatment and every other day during the post treatment. If an animal became unwell, any treatment of that animal was suspended. If there was no recovery, the animal was sacrificed. […] Mice transplant area size measurements were taken prior to treatment and every other day during and post treatment. The same scientist was responsible for taking the measurements throughout the study.
(§4) Groups of 5 male mice and 5 female mice bearing psoriatic tissues were treated with either (−) cis-[4-[2-amino-6-(cyclopropylamino)-9H-purin-9-yl]-2-cyclopentene-1-hydroxymethyl acetate (Prurisol) alone or methotrexate (MTX) according to the schedule below. Another group of mice remained untreated to serve as controls.
(§5) Prurisol was administered orally (PO) to the mice, along with the topical application at 8 hour intervals on the effected area. […] In psoriasis, anti-apoptotic protein G1P3 is over expressed, which is regulated by the non-coding RNA. Psoriasis susceptibility related RNA Gene Induced by Stress (PRINS) was examined in control animal's transplants and treated ones (the expression in psoriatic plaques will be 10 times higher), and results from these studies are shown below.

IL-20 = IL-20 in tissue measured by ELISA, psoriatic xenograft SCID mice; type: in vivo, SCID mice bearing human psoriatic tissue; settings: for IL-20: ELISA, control 178; for reduction of IL-20 concentration in tissue: versus control
Procedure: as §1, §2, §3, §4
IL-20 was also measured using ELISA technique and data is also shown below.

[2] = Weight changes of treated mice; type: in vivo, SCID mice
Procedure: as §3, §5

human psoriatic tissue = experiment: Recovery from psoriasis in SCID mice implanted with human psoriatic tissue; type: in vivo; settings: 10 mg, one time per day or BID
Procedure: as §1, §2
24 Hours after the TBI, a 5 mm×5 mm cut of the human psoriatic tissue was transplanted on the skin of the mice, under ketamine/xylazine anesthesia. The tissues were adherent by using a skin cement. All animals survived the anesthesia and the surgery for the experiment. The complete fusion of the tissues was achieved by day 27. During treatments, mice were observed daily for any adverse affects. Mice body weights were taken prior to treatment and every other day during the post treatment. If an animal became unwell, any treatment of that animal was suspended. If there was no recovery, the animal was sacrificed. […]

[3] = Oral bioavailability and disposition of Prurisol; settings: in vivo
Storage stability = type: physicochemical; settings: stored at ambient temperature, protected from light
[4] = Prurisol 10 mg/kg, MTX 7.5 mg/kg

## CN(Cc1cnc2nc(N)nc(N)c2n1)c1ccc(C(=O)N[C@@H](CCC(=O)O)C(=O)O)cc1 [MTX, methotrexate, reference compound]
[1]; [4]
  PRINS: 28
IL-20; [4]
  IL-20: 127
IL-20
  reduction of IL-20 concentration in tissue: 1.4 fold

## Nc1nc(NC2CC2)c2ncn([C@H]3C=C[C@@H](COC(=O)CO)C3)c2n1 [Prurisol]
[2]; 5 mg/kg on days 11 to 35 and 20 mg/kg topically
  weight loss: no weight loss
[2]; orally (PO) along with topical application at 8 hour intervals
  weight loss due to administration: within acceptable limits
[1]; [4]
  PRINS: 24
[1]; Prurisol × 2 (2×10 mg/kg)
  PRINS: 5
[1]; in vivo
  PRINS reduction in comparison to methotrexate: reduces PRINS significantly
Human psoriatic tissue
  recovery from psoriasis (skin appearance, FIG. 6): recovered from psoriasis
[3]
  crossing the blood brain barrier: capable of crossing the blood brain barrier
  metabolism route: metabolized primarily through alcohol dehydrogenase or glucuronyl transferase
[3]; oral, read-out: oral bioavailability (% F)
  bioavailability: 83%
IL-20; [4]
  IL-20: 54
IL-20; Prurisol × 2 (2×10 mg/kg)
  IL-20: 18
IL-20
  reduction of IL-20 concentration in tissue: 3 fold
Storage stability
  stability: stable
